Data on two compounds can be found in ChEMBL document CHEMBL3045439, “Isoforms of the heteropteran Nezara viridula ecdysone receptor: protein characterisation, RH5992 insecticide binding and homology modelling” (Pest Manag Sci, 2011).

What all share (type): protein-complex assay
The target of assay [1] is T1, Ecdysone receptor (Nezara viridula, UniProt E5L6Y0+E5L6Y1).
T1 sequence (E5L6Y1 whole entry): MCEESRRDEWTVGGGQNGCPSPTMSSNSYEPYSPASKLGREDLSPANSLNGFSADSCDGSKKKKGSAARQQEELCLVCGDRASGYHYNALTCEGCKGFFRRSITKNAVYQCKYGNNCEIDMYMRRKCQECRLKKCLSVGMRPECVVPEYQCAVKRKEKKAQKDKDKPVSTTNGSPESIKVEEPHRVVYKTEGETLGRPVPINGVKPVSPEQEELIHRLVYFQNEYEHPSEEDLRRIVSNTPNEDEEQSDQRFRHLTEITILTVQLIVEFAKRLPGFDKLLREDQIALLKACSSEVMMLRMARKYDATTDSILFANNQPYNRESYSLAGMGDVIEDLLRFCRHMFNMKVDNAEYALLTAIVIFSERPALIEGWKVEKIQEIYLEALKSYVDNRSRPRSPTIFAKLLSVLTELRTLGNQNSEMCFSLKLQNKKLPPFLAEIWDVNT
T1 sequence (E5L6Y0 whole entry): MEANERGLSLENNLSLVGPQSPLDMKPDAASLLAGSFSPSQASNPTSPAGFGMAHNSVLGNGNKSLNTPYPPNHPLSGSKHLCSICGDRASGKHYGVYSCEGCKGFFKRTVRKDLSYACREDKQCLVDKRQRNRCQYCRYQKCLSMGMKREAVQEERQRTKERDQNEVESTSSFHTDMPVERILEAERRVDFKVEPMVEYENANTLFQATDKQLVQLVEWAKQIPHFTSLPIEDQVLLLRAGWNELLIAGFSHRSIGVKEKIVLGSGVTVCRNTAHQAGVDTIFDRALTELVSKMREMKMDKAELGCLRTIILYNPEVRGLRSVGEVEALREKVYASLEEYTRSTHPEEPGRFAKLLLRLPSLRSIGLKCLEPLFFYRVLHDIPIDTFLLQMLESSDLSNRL
Put plainly: Displacement of [3H]PonA from recombinant Nezara viridula EcR10.

Assay [2] concerns the target T2, Ecdysone receptor (Leptinotarsa decemlineata, UniProt Q4W6C8+Q4W6D0).
T2 sequence (Q4W6D0 whole entry): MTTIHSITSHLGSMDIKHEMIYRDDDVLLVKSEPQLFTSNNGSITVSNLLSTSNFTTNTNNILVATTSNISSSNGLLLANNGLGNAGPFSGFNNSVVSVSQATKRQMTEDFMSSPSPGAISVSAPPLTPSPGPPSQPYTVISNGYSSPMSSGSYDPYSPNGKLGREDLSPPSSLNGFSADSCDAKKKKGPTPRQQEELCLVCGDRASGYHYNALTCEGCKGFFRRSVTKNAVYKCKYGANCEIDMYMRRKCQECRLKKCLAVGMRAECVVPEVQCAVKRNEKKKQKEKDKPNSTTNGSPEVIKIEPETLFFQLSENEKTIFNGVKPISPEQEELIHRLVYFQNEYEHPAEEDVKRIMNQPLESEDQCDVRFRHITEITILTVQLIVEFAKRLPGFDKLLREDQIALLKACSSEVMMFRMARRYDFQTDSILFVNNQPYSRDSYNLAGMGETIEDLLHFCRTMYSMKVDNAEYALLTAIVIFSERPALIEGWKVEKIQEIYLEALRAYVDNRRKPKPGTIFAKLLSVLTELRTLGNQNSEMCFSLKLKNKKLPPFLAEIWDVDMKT
T2 sequence (Q4W6C8 whole entry): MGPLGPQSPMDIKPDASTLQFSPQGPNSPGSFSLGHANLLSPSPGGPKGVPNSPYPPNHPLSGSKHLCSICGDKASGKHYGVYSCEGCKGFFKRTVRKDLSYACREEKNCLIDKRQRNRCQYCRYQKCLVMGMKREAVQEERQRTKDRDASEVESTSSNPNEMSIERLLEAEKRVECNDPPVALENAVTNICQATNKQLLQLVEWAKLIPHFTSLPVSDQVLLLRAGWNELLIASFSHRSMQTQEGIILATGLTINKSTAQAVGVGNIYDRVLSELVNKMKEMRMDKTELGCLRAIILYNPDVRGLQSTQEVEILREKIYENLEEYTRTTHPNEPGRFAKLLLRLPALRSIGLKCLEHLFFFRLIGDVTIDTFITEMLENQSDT
Put plainly: Binding affinity to Leptinotarsa decemlineata EcR.

Assay [3] concerns the target T1, Ecdysone receptor. In words: Binding affinity to Nezara viridula EcR.
In assay [4] the target is T3, Ecdysone receptor (Aedes aegypti, UniProt P49880+Q9GSG8).
T3 sequence (P49880 whole entry): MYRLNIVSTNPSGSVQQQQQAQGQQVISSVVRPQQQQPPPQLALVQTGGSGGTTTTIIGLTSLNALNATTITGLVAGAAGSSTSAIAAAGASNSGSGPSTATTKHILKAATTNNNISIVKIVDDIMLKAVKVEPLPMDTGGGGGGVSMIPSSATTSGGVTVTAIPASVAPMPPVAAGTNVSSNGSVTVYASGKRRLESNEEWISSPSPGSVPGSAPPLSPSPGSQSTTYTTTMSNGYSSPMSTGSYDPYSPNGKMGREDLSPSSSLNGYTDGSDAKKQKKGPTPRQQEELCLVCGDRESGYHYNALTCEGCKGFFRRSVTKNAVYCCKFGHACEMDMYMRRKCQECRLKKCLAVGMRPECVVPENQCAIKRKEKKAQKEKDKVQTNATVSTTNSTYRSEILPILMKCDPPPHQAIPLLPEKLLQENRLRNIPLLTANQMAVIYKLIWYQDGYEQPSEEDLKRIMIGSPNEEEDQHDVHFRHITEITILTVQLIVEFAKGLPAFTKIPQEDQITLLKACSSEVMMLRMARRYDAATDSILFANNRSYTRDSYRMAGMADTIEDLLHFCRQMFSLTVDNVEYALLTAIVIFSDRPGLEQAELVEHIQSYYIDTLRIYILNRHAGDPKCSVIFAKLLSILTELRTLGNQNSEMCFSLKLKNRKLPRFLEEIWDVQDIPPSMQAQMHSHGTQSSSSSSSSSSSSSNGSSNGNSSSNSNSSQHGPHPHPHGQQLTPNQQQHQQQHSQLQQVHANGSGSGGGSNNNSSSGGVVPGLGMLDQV
T3 sequence (Q9GSG8 whole entry): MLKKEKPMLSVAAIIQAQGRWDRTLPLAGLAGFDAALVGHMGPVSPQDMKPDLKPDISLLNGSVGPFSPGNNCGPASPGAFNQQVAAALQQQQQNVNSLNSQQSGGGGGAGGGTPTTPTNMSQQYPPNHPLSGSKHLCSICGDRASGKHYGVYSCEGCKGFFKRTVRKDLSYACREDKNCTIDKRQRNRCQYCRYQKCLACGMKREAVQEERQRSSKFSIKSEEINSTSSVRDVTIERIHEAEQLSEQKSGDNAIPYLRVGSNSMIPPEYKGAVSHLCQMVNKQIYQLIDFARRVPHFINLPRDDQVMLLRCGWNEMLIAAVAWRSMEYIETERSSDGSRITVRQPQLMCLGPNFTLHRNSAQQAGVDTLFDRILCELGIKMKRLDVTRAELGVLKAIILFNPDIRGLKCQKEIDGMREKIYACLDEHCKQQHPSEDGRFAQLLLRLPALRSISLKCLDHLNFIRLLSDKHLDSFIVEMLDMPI
Put plainly: Binding affinity to Aedes aegypti EcR.

Usually IC50 stands for the point on the concentration scale where inhibition reaches its midpoint. As usually defined, the Ki is the equilibrium dissociation constant of an inhibitor or competing ligand from its target.

For `CC(C)(O)CC[C@@H](O)[C@](C)(O)[C@H]1CC[C@@]2(O)C3=CC(=O)[C@@H]4C[C@@H](O)[C@@H](O)C[C@]4(C)[C@H]3CC[C@]12C` [20-HYDROXYECDYSONE], the figures for the IC50 on Ecdysone receptor [1], on Ecdysone receptor [2] and on Ecdysone receptor [3] were 3000 nM, 437 nM and 1050 nM, respectively. The Ki on Ecdysone receptor [1] is 2500 nM.

As for `CCc1ccc(C(=O)NN(C(=O)c2cc(C)cc(C)c2)C(C)(C)C)cc1` [TEBUFENOZIDE], the Ki is 25.1 nM at Ecdysone receptor [4], 16800 nM at Ecdysone receptor [1], 2510 nM on Ecdysone receptor [2] and 25100 nM on Ecdysone receptor [3]. The IC50 at Ecdysone receptor [1] amounted to 20000 nM.
